Measurements: patent US9255100B2 (BAYER INTELLECTUAL PROPERTY GMBH, priority 2010, dated 2016)

Target: T1, N-terminally GST-tagged human full length recombinant Mps-1 kinase (Homo sapiens, UniProt P33981)
T1 construct: N-terminally GST-tagged human full length recombinant Mps-1 kinase; purchased Invitrogen, Karslruhe, Germany PV4071
T1 sequence (P33981 1-857): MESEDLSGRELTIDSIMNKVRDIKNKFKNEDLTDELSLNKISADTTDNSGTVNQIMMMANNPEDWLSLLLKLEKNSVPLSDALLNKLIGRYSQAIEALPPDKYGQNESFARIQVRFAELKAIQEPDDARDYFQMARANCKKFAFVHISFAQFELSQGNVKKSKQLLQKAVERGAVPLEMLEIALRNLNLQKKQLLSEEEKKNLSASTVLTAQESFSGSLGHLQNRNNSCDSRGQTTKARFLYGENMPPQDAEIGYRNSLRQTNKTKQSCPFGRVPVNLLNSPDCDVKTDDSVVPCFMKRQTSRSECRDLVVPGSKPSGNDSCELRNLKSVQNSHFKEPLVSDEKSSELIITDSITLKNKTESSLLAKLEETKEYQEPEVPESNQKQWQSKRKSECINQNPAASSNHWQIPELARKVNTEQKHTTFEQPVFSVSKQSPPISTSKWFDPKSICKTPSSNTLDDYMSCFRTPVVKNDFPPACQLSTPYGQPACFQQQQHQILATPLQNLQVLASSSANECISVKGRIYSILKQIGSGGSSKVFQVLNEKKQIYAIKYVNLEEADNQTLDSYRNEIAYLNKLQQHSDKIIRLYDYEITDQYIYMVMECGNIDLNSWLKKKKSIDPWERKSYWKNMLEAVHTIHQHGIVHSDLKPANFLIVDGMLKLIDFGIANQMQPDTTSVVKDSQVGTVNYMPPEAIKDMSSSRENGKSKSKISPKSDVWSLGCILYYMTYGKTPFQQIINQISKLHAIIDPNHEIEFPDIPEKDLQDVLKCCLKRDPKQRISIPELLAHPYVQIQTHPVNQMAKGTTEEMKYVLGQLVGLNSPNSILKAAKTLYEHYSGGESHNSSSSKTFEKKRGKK
Test: Mps-1 kinase assay (TR-FRET)
Type: biochemical
Conditions: Mps1 IC50 [nM], 10 μM ATP, 1 μM peptide substrate, 60 min at 22° C.
In short: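 GST-Mps-1 (full length, N-term tag) ~1 nM final, linear-range adjusted per lot; biotinylated peptide substrate. Detection: Eu-anti-pSer/Thr donor → SA-XLent acceptor TR-FRET, 1 h, 22° C. Inhibition of kinase activity.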

IC50 [nM]	SMILES
0.2	Cc1cc(-c2cnc3c(NCC(C)(C)O)cc(Oc4cccc(Cl)c4)nn23)ccc1C(=O)NC1CC1 [Example 85, 4-{6-(3-Chlorophenoxy)-8-[(2-hydroxy-2-methylpropyl)amino]imidazo[1,2-b]pyridazin-3-yl}-N-cyclopropyl-2-methylbenzamide]
0.2	COc1ccc(Sc2cc(NCCC(F)(F)F)c3ncc(-c4ccc(C(=O)NC5CC5)c(C)c4)n3n2)cc1 [Example 227, N-cyclopropyl-4-{6-[(4-methoxyphenyl)sulfanyl]-8-[(3,3,3-trifluoropropyl)amino]imidazo[1,2-b]pyridazin-3-yl}-2-methylbenzamide]
12	Cc1cc(-c2cnc3c(NCC(C)(C)O)cc(-c4ccoc4)nn23)ccc1C(=O)NC1CC1 [Example 157, N-cyclopropyl-4-{6-(furan-3-yl)-8-[(2-hydroxy-2-methylpropyl)amino]imidazo[1,2-b]pyridazin-3-yl}-2-methylbenzamide]
11.5	COc1cc(C(=O)NC2CC2)ccc1-c1cnc2c(NCC(C)(C)O)cc(Sc3cccc(F)c3)nn12 [Example 62B, N-cyclopropyl-4-{6-[(3-fluorophenyl)sulfanyl]-8-[(2-hydroxy-2-methylpropyl)amino]imidazo[1,2-b]pyridazin-3-yl}-3-methoxybenzamide]
0.2	Cc1cc(-c2cnc3c(NCC(C)(C)O)cc(Nc4ccc(F)cc4Cl)nn23)ccc1C(=O)NC1CC1 [Example 405, 4-{6-[(2-chloro-4-fluorophenyl)amino]-8-[(2-hydroxy-2-methylpropyl)amino]imidazo[1,2-b]pyridazin-3-yl}-N-cyclopropyl-2-methylbenzamide]
2	CC(C)CNc1cc(-c2ccc(C(N)=O)cc2)nn2c(-c3ccc(C(=O)NC4CC4)cc3)cnc12 [Example 113, 4-{6-(4-Carbamoylphenyl)-8-[(2-methylpropyl)amino]imidazo[1,2-b]pyridazin-3-yl}-N-cyclopropylbenzamide]
0.1	Cc1cc(-c2cnc3c(NCC(F)F)cc(Oc4cccc(F)c4)nn23)ccc1C(=O)NC1CC1 [Example 512, N-cyclopropyl-4-{8-[(2,2-difluoro-ethyl)amino]-6-(3-fluoro-phenoxy)imidazo[1,2-b]pyridazin-3-yl}-2-methylbenzamide]
3.3	Cc1cc(-c2cnc3c(NCC4CCC(C)(O)CC4)cc(-c4ccccc4CO)nn23)ccc1C(=O)NC1CC1 (stereo not drawn) [Example 340, N-cyclopropyl-4-(8-{[(4-hydroxy-4-methylcyclohexyl)methyl]amino}-6-[2-(hydroxymethyl)phenyl]imidazo[1,2-b]pyridazin-3-yl)-2-methylbenzamide]
6.9	Cc1cc(-c2cnc3c(NCC(C)(C)O)cc(-c4ccc(F)cc4CO)nn23)ccc1C(=O)NC1CC1 [Example 299, N-cyclopropyl-4-{6-[4-fluoro-2-(hydroxymethyl)phenyl]-8-[(2-hydroxy-2-methylpropyl)amino]imidazo[1,2-b]pyridazin-3-yl}-2-methylbenzamide]
0.3	Cc1cc(-c2cnc3c(NCC(C)(C)O)cc(Oc4ccccc4F)nn23)ccc1C(=O)NC1CC1 [Example 93, N-cyclopropyl-4-{6-(2-fluorophenoxy)-8-[(2-hydroxy-2-methylpropyl)amino]imidazo[1,2-b]pyridazin-3-yl}-2-methylbenzamide]
0.9	CC(C)(O)CNc1cc(Oc2ccccc2)nn2c(-c3ccc(C(=S)NC4CC4)cc3)cnc12 [Example 243, N-cyclopropyl-4-{8-[(2-hydroxy-2-methylpropyl)amino]-6-phenoxyimidazo[1,2-b]pyridazin-3-yl}benzenecarbothioamide]
0.1	Cc1cc(F)cc(Sc2cc(NCC(C)(C)O)c3ncc(-c4ccc(C(=O)NC5CC5)c(C)c4)n3n2)c1 [Example 67, N-cyclopropyl-4-{6-[(3-fluoro-5-methylphenyl)sulfanyl]-8-[(2-hydroxy-2-methylpropyl)amino]imidazo[1,2-b]pyridazin-3-yl}-2-methylbenzamide]
